Experimental data from patent US12365686B2, “Compound as porcupine inhibitor and use thereof” (JIANGSU KANION PHARMACEUTICAL CO., LTD., priority 2019, dated 2025).
pIC50: −log10 of the molar value. Where a name gives a salt, the structure may show the parent alone.

How the values were obtained:
Capan-2 cells = assay: Anti-proliferative activity on Capan-2 cells; type: cell-based; settings: Homo sapiens, Capan-2, 120 h; 5 days, CellTiter-Glo
Protocol: 2. Assay of Anti-Proliferative Activity on Capan-2 Cells
Capan-2 cells were planted in a white 96-well plate with 80 μL of cell suspension per well, which contained 5000 Capan-2 cells. The cell plate was placed in a carbon dioxide incubator for culture overnight.
The assay compound was serially diluted 3-fold with a discharge gun to the 9th concentration, that is, from 200 μM to 30 nM, in duplicate. 78 μL of medium was added to the middle plate, and then 2 μL of the serially diluted compound was transferred to each well of the middle plate according to the corresponding position. After mixing, 20 μL of the mixture was transferred to each well of the cell plate. The cell plate was incubated in a carbon dioxide incubator for 5 days. Another cell plate was prepared, and read on the day of drug addition. The signal value was used as the maximum value (The value of Max in the equation below) in data analysis. 25 μL of chemiluminescence detection reagent for cell viability was added to each well of this cell plate, and this cell plate was incubated at room temperature for 10 minutes to stabilize the luminescence signal. A multi-label analyzer was used to read results.
After the cell plate was cultured for 5 days, 25 μL of Promega CellTiter-Glo reagent was added to each well of the cell plate. The cell plate was incubated at room temperature for 10 minutes to stabilize the luminescence signal. A multi-label analyzer was used to read results.
The value of IC50 can be obtained by curve fitting. Table 2 provides the inhibitory activity of the compounds of the present disclosure on Capan-2 cell proliferation.

[1] = test system: STF reporter gene for WNT pathway (Porcupine of the Wnt signaling pathway); assay: Inhibitory activity on Super-Top-Flash (STF) reporter gene; type: cell-based; settings: HEK293 STF and L wnt3A cells 1:1, 24 hours, Bright-Glo
Protocol: 1. Assay of Inhibitory Activity on Super-Top-Flash (STF) Reporter Gene
HEK293 STF and L wnt3A cells were planted at a ratio of 1:1 in a white 96-well plate with 80 μL of cell suspension per well, which contained 20,000 HEK293 STF cells and 20,000 L wnt3A cells. The cell plate was placed in a carbon dioxide incubator for culture overnight.
The assay compound was serially diluted 5-fold with a discharge gun to the 8th concentration, that is, from 400 μM to 5.12 nM, in duplicate. 78 μL of medium was added to the middle plate, and then 2 μL of the serially diluted compound was transferred to each well of the middle plate according to the corresponding position. After mixing, 20 μL of the mixture was transferred to each well of the cell plate. The cell plate was placed in a carbon dioxide incubator for 24 hours.
100 μL of Promega Bright-Glo reagent was added to each well of the cell plate, and the cell plate was incubated at room temperature for 10 minutes to stabilize the luminescence signal. A multi-label analyzer was used to read results.
The original data of the multi-label analyzer was used for calculation, and the value of IC50 can be obtained by curve fitting. Table 1 provides data of the inhibitory activity of the compounds of the present disclosure on the Wnt signaling pathway.

[2] = Pharmacokinetic evaluation of compounds in mice; type: in vivo; settings: mouse, plasma, male CD-1 mice; for clearance / bioavailability / half-life / Vd: IV 0.5 mg/kg; for bioavailability / AUC(0-t): PO 2.5 mg/kg; for half-life: read-out: T1/2 IV (converted); for Vd: read-out: Vdss; for AUC(0-t): read-out: AUC0-last PO; for Cmax: single dose, route not stated (IV 0.5 mg/kg, PO 2.5 mg/kg)
Protocol: Assay 4: Pharmacokinetic Evaluation of Compounds
Assay purpose: Pharmacokinetics of compounds in […] mice was assayed.
CD-1 mice (male, 7-9 weeks old, Shanghai Slack)
The pharmacokinetic characteristics of rodents after intravenous (IV) and oral (PO) administration of compounds were assayed by standard protocols. In the assay, mice were given a single intravenous injection and oral administration. The vehicle for intravenous injection was water. The oral vehicle was 0.5% hypromellose. Four male CD-1 mice were used in this project. Two mice were administered intravenously at a dose of 0.5 mg/kg, and plasma samples were collected at 0 h (before administration) and 0.083, 0.25, 0.5, 1, 2, 4, 8, and 24 h after administration. The other two mice were orally administered by gavage at a dose of 2.5 mg/kg, and plasma samples were collected at 0 h (before administration) and 0.25, 0.5, 1, 2, 4, 8, and 24 h after administration. Whole blood samples within 24 hours were collected, and centrifuged at 3000 g for 15 minutes. The supernatant was separated to obtain a plasma sample, and protein was precipitated by adding 4 times volume of acetonitrile solution containing internal standard. The mixture was centrifuged to obtain a supernatant, and an equal volume of water was added to the obtained supernatant. The mixture was then centrifuged to obtain a supernatant for injection. The blood drug concentration was quantitatively analyzed by LC-MS/MS analysis method, and pharmacokinetic parameters were calculated, such as peak concentration (Cmax), clearance rate (CL), half-life (T1/2), […] (Vdss), area under the drug-time curve (AUC0-last), and bioavailability (F), etc.
The assay results are shown in Table 4: The compounds of the present disclosure have good pharmacokinetic properties.

[3] = test system: human pancreatic cancer Capan-2 xenograft tumor; assay: In vivo drug efficacy on Capan-2 transplanted tumor in nude mice; settings: for T/C % / TGI %: 5 mg/Kg, BID, 31 days, Capan-2 Xenograft model
Protocol: 3. Assay of In Vivo Drug Efficacy on Capan-2 Transplanted Tumor in Nude Mice
Capan-2 cells were cultured in McCoy's 5A medium, containing 10% fetal bovine serum FBS, in a 37° C. incubator with 5% CO2. Tumor cells were collected after passaging and growing to a suitable concentration and during the logarithmic growth phase. The cells resuspended in McCoy's 5A medium were counted and the cell suspension was adjusted to a concentration of 2×10^7/mL for inoculation.
Establishment of human pancreatic cancer Capan-2 xenograft tumor. Cells were collected and the concentration was adjusted to 2×10^7 (resuspend with McCoy's 5A medium to a cell suspension containing 50% Martigel). Under aseptic conditions, 0.1 mL of tumor cells was injected subcutaneously into the right back of the mouse, and the number of cells inoculated per mouse was 2×10^6. After the tumor was grown to a certain size, digital vernier calipers was used to measure the length (a) and width (b) of the tumor, and the tumor volume was calculated. The calculation formula of tumor volume (TV) was: TV=a×b^2/2.
Capan-2 tumor cells were inoculated. When the tumor was grown to about 150 cubic millimeters, mice were divided into groups with 6 mice in each group. The day of grouping was regarded as day 0, and the drug was administered on the day of grouping. During the assay, the animal's body weight and tumor size were measured twice a week, and the animal's clinical symptoms were observed and recorded every day. For each administration, the most recently weighed animal body weight was referred to.
The evaluation index of anti-tumor activity is relative tumor proliferation rate T/C (%), wherein T/C (%)>40% means ineffective, and T/C (%)<40% and statistically P<0.05 means effective. The calculation formula of T/C (%) is: T/C (%)=(TRTV/CRTV)×100%. TRTV is relative tumor volume of the treatment group, and CRTV is relative tumor volume of the negative control group. TGI (%)^b tumor inhibition rate=(average tumor volume or weight of negative control group-average tumor volume or weight of administration group)/average tumor volume or weight of negative control group×100%. TGI (%)^a=[(1−(average tumor volume of a certain administration group at the time of measurement-average tumor volume of the administration group at the beginning of the administration))/(average tumor volume of vehicle control group at the time of measurement-average tumor volume of the vehicle control group at the beginning of the administration)]×100%.

Row | pIC50 [1] | SMILES | pIC50 (Capan-2 cells) | other results
1 | 10.89 | Cc1cc(CNc2nccn3c(-c4ccccc4)cnc23)cnc1-c1ccnn1C [Compound 18] | 7.72 | –
2 | 8.01 | Cc1cc(-c2ncc(CNc3nccn4c(N5CCNCC5)cnc34)cc2C)ccn1 [Compound 5] | – | –
3 | – | Cc1cc(-c2ncc(C(C)Nc3nccn4c(-c5ccccc5)cnc34)cc2C)ccn1 (stereo not drawn) [Compound 32 (hydrochloride)] | 8.52 | –
4 | 9.85 | Cc1cc(-c2ncc(CNc3nccn4c(-c5cnn(C)c5)cnc34)cc2C)ccn1 [Compound 4] | 6.02 | –
5 | – | Cc1cc(-c2ncc(CNc3nccn4c(-c5cc(F)cc(F)c5)cnc34)cc2OCCN(C)C)ccn1 [Compound 33] | 8.64 | clearance [2]: 35.1 mL/min/kg; bioavailability [2]: 37.4%; half-life [2]: 3.69 h; Vd [2]: 9.52 L/kg; AUC(0-t) [2]: 0.975 µM·h; Cmax [2]: 107 nM; T/C % [3]: 17.71%; TGI % [3]: 92.6%
6 | – | Cc1cc(-c2ccc(CNc3nccn4c(-c5ccccc5)cnc34)cc2C#N)ccn1 [Compound 22 (formate)] | 8.91 | clearance [2]: 8.24 mL/min/kg; bioavailability [2]: 71.9%; half-life [2]: 3.13 h; Vd [2]: 1.09 L/kg; AUC(0-t) [2]: 11.9 µM·h; Cmax [2]: 1820 nM
7 | 9.92 | Cc1cc(-c2ncc(CNc3nccn4c(-c5cccnc5)cnc34)cc2C)ccn1 [Compound 2] | 8.37 | –
8 | 9.40 | COc1cc(-c2ncc(CNc3nccn4c(-c5ccccc5)cnc34)cc2C)ccn1 [Compound 20] | 7.73 | –
9 | 9.42 | Cc1cc(-c2ncc(CNc3nccn4c(-c5cccc(F)c5)cnc34)cc2C)ccn1 [Compound 29 (hydrochloride)] | 9.46 | clearance [2]: 5.05 mL/min/kg; bioavailability [2]: 89%; half-life [2]: 2.78 h; Vd [2]: 0.641 L/kg; AUC(0-t) [2]: 17.3 µM·h; Cmax [2]: 2640 nM
10 | – | Cc1cc(-c2ncc(CNc3nccn4c(-c5cc(F)cc(F)c5)cnc34)cc2OC2CCN(C)CC2)ccn1 [Compound 34] | 8.72 | –
11 | – | Cc1cc(-c2ncc(CNc3nccn4c(-c5ccccc5)cnc34)cc2F)ccn1 [Compound 21] | 9.37 | –
12 | – | Cc1cc(-c2ncc(C(CO)Nc3nccn4c(-c5ccccc5)cnc34)cc2C)ccn1 (stereo not drawn) [Compound 35] | 8.00 | –
13 | – | Cc1cc(-c2ncc(CNc3nccn4c(-c5cc(F)cc(F)c5)cnc34)cc2F)ccn1 [Compound 36 (formate)] | 9.68 | clearance [2]: 6.5 mL/min/kg; bioavailability [2]: 50.6%; half-life [2]: 3.05 h; Vd [2]: 1.35 L/kg; AUC(0-t) [2]: 7.23 µM·h; Cmax [2]: 980 nM; T/C % [3]: 21%; TGI % [3]: 88.86%
14 | 9.07 | Cc1cc(-c2ncc(CNc3nccn4c(-c5cccc(Cl)c5)cnc34)cc2C)ccn1 [Compound 28 (hydrochloride)] | 8.84 | clearance [2]: 4.16 mL/min/kg; bioavailability [2]: 66.6%; half-life [2]: 2.6 h; Vd [2]: 0.553 L/kg; AUC(0-t) [2]: 15.1 µM·h; Cmax [2]: 2340 nM
15 | – | Cc1cc(-c2ncc(CC(=O)Nc3ccc(-c4cnccn4)cn3)cc2C)ccn1 [LGK974, reference compound] | – | inhibitory effect on human pancreatic cancer Capan-2 xenograft tumor (in words) ([3]; 5 mg/Kg BID (twice a day) for 31 days): inhibitory effect; T/C % [3]: 36.33%; TGI % [3]: 78.3%
16 | – | Cc1cc(-c2ccc(CNc3nccn4c(-c5ccccc5)cnc34)c(F)c2)ccn1 [Compound 31] | 8.33 | –
17 | 7.87 | Cc1cc(-c2ncc(CNc3nccn4c(C5CC5)cnc34)cc2C)ccn1 [Compound 10] | < 6.00 | –
18 | 9.82 | Cc1cc(-c2ncc(CNc3nccn4c(C(=O)Nc5ccccc5)cnc34)cc2C)ccn1 [15 (formate)] | – | –
19 | – | Cc1cc(-c2ccc(CNc3nccn4c(-c5ccccc5)cnc34)cc2N(C)C)ccn1 [Compound 23] | 9.13 | –
20 | 9.64 | Cc1cc(-c2ccc(CNc3nccn4c(-c5ccccc5)cnc34)cc2C)ccn1 [Compound 17] | 8.84 | –
21 | > 12.00 | CC(=O)N1CCC(c2cnc3c(NCc4cnc(-c5ccnc(C)c5)c(C)c4)nccn23)CC1 [Compound 14] | – | –
22 | 9.24 | CC(=O)N1CCN(c2cnc3c(NCc4cnc(-c5ccnc(C)c5)c(C)c4)nccn23)CC1 [Compound 6] | – | –
23 | > 12.00 | Cc1cc(-c2ncc(CNc3nccn4c(C(=O)N(C)C)cnc34)cc2C)ccn1 [Compound 16] | – | –
24 | 10.30 | Cc1cc(-c2ncc(CNc3nccn4c(-c5ccccc5)ncc34)cc2C)ccn1 [Compound 11] | – | T/C % [3]: 31.29%; TGI % [3]: 82.8%
25 | 8.18 | Cc1cc(-c2ncc(CNc3nccn4c(-c5ccc(C#N)cc5)cnc34)cc2C)ccn1 [Compound 8] | 6.96 | –
26 | 9.02 | Cc1cc(-c2ncc(CNc3nccn4c(-c5ccc(F)cc5)cnc34)cc2C)ccn1 [Compound 3] | – | –
27 | 8.05 | COc1ccc(-c2cnc3c(NCc4cnc(-c5ccnc(C)c5)c(C)c4)nccn23)cc1 [Compound 9 (formate)] | 6.99 | –
28 | 9.25 | Cc1cc(-c2ncc(CNc3nccn4c(C5CCN(C(C)C)CC5)cnc34)cc2C)ccn1 [Compound 13 (formate)] | – | –
29 | 10.77 | Cc1cc(-c2ccc(CNc3nccn4c(-c5ccccc5)cnc34)cn2)ccn1 [Compound 19] | 8.34 | –
